Reference: patent US11344601B2, “Tumor microenvironment-related target TAK1 and application thereof in inhibition of tumor” (Shanghai Institutes for Biological Sciences, Chinese …, priority 2017, dated 2022)

Tests used:
[1] = tested on: prostate cancer epithelial cell lines (BPH1, M12, PC3, DU145 and LNCaP); assay: Chemotherapy resistance of cancer cells conferred by extracellular fluid of damaged PSC27 stromal cells; type: cell-based, human; conditions: stromal cells treated with TAK1 inhibitor
Procedure: c. Experimental Treatment In Vitro • 100 nM docetaxel (DTX), 100 nM paclitaxel (PTX), 200 nM vincristine (VCR), 50 μg/ml bleomycin (BLEO), 1 μM mitoxantrone (MIT), or 10 Gy ^137CS ionizating radiation (γ-radiation at 743 rad/min, RAD) was added to the culture medium when PSC27 cells grown to 80% (PSC27-Pre) to produce cell damage. After drug treatment for 6 hours, the cells were simply washed by PBS for 3 times and kept in the culture medium for 7 to 10 days, followed by subsequent experiments. 2. Plasmid Preparation and Lentiviral Transfection • Full-length human IKKα and Flag were cloned as a fusion protein between the restriction sites BamHI and XbaI in the expression vector pCR3.1. Full-length human mTOR and GST were cloned as a fusion protein between a pair of NotI restriction sites in the expression vector pcDNA3. Packaging cell line 293FT was used for cell transfection and lentivirus production. […] FV1000 laser scanning confocal microscopy (Olympus) was used to obtain cellular confocal fluorescence images to determine the extent of DNA damage. • Antibody anti-TAK1 used for histological IHC staining in clinical prostate, non-small cell lung cancer patients and breast cancer patients, was purchased from Proteintech, idib. […] Quantitative PCR for Measuring Gene Expression […]

IL-8 = IL-8 protein expression of damaged stromal cells (Western blot, ELISA); type: cell-based, human
Procedure: FIG. 15. The stromal cells were collected on Day 7 after bleomycin and/or 5Z-7 treatment. The lysates were analyzed by Western blot for their phosphorylation levels of ATM and TAK1, and activation of TAK1 downstream substrate JN K and p38. IL-8, a chemokine was used as a marker secreted factor of SASP, whose expression level was simultaneously analyzed. FIG. 33. The extracellular fluid released by each group of cells were tested by ELISA to determine the protein expression level of the secreted factor IL-8.

COc1cc(O)c2c(c1)/C=C/C[C@H](O)[C@H](O)C(=O)/C=C\C[C@H](C)OC2=O [5Z-7, 5z-7-oxozeaenol]
resistance of cancer cells to docetaxel conferred by stromal cell extracellular fluid ([1]; docetaxel): attenuate the acquired resistance
resistance of cancer cells to mitoxantrone conferred by stromal cell extracellular fluid ([1]; mitoxantrone at IC50 concentration): significantly weakened
chemokine IL-8 protein levels induced by DNA damage (IL-8; ELISA of extracellular fluid, bleomycin plus inhibitor): significantly reduced
protein expression level of IL-8 (IL-8; Western blot, Day 7 after bleomycin and/or 5Z-7): significantly downregulated
